The values that follow come from patent US20240327354A1, “GRAM-NEGATIVE BACTERIA EFFLUX PUMP INHIBITORS” (INSTITUT NATIONAL DE LA SANTÉ ET DE LA RECHERCHE MÉDICALE, priority 2021, published 2024).

Counter-ions that a name gives are not always drawn. Bounds are passed on as bounds.

For the experiment, the system named is E. coli BW25113. Kind of experiment: Assay 1: growth inhibition of E. coli by sub-inhibitory pyridomycin in combination with examples (resazurin reduction). The format is cell-based, Escherichia coli. The conditions noted are these: read-out: EC50 on E. coli with 8 μg/mL of pyridomycin, 8 μg/mL pyridomycin, 5 h, 37° C. The text has this:
Escherichia coli BW25113 (CGSC 7636) and its derivatives E. coli ΔtolC (JW5503-1, ΔtolC732::kan, CGSC 11430), E. coli ΔacrA (JW0452-3, ΔacrA748::kan, CGSC 11843) and E. coli ΔacrB (JW0451-2, ΔacrB747::kan, CGSC 8609) were obtained from E. coli Genetic Stock Center (CGSC, New Haven, Connecticut) and originated from the Keio Collection (Baba T et al, Mol Sys Biol, 2006). Klebsiella pneumoniae (LMG 2095/ATCC 13883) and K. pneumoniae (ATCC43816), Pseudomonas aeruginosa (PAO1), Acinetobacter baumannii (LMG 1025, ATCC 17978), were obtained from ATCC or BCCM/LMG Bacteria Collection. All bacteria were grown and tested in cation-adjusted Mueller-Hinton broth (CAMHB; BD Difco) at 37° C. For conservation, log phase bacteria were frozen (−80° C.) in CAMHB supplemented with 15% glycerol.
Briefly, E. coli BW25113 were diluted from frozen or growing stocks to an OD600 of 0.0004-0.001 in CAMHB. […] E. coli BW25113 viability was evaluated using the resazurin reduction assay, and measured by fluorescence (POLARstar Omega, BMG Labtech: Ex: 530 nm Em: 590 nm). EC50 were defined as the compound concentration that prevented 50% of resazurin turnover compared to the non-treated bacteria.
A general note: Alamar Blue is a resazurin reagent that responds to reducing activity.
On to `Clc1cc2cc(N3CCNCC3)ccc2nc1N1CCNCC1` [Example 56, 3-chloro-2,6-di(piperazin-1 yl)quinoline;dihydrochloride], for which the EC50 is less than 5 µM. In the case of `Clc1cc2cc(I)ccc2nc1N1CCNCC1` [Example 61, 3-chloro-6-iodo-2-piperazin-1-yl-quinoline;hydrochloride] it was less than 5 µM; in that of `C[C@H]1CN(c2nc3ccccc3nc2Cl)CCN1` [Example 50, 2-chloro-3-[(3S)-3-methylpiperazin-1-yl]quinoxaline;hydrochloride], 5 to 100 µM. Take `NCc1cc(Cl)cc(-c2ccc3nc(N4CCNCC4)c(Cl)cc3c2)c1` [Example 137, [3-chloro-5-(3-chloro-2-piperazin-1-yl-6-quinolyl)phenyl]methanamine;dihydrochloride]: the EC50 is less than 5 µM. In the case of `NCCCNc1ccc2nc(N3CCNCC3)c(Cl)cc2c1` [Example 63, N′-(3-chloro-2-piperazin-1-yl-6-quinolyl)propane-1,3-diamine; dihydrochloride] it was less than 5 µM; in that of `NCCCn1cc(-c2ccc3nc(N4CCNCC4)c(Cl)cc3c2)nn1` [Example 93, 3-[4-(3-chloro-2-piperazin-1-yl-6-quinolyl)triazol-1-yl]propan-1-amine;dihydrochloride], less than 5 µM; in that of `Clc1cc2cc(N3CCCCC3)ccc2nc1N1CCNCC1` [Example 67, 3-chloro-2-piperazin-1-yl-6-(1-piperidyl)quinoline;hydrochloride], 5 to 100 µM.

`C[C@@H](N)c1cccc(-c2ccc3nc(N4CCNCC4)c(Cl)cc3c2)c1` [Example 113, (1R)-1-[3-(3-chloro-2-piperazin-1-yl-6-quinolyl)phenyl]ethanamine;dihydrochloride]: the EC50 was less than 5 µM. In the case of `NCc1cccc(COc2cnc(N3CCNCC3)c(Cl)c2)c1` [Example 78, [3-[(5-chloro-6-piperazin-1-yl-3-pyridyl)oxymethyl]phenyl]methanamine;dihydrochloride] it was 5 to 100 µM; in that of `Clc1cc2cc(N[C@H]3CCCNC3)ccc2nc1N1CCNCC1` (stereo in doubt) [Example 104, 3-chloro-2-piperazin-1-yl-N-(3-piperidyl)quinolin-6-amine;dihydrochloride], less than 5 µM; in that of `NCCCC#Cc1cnc(N2CCNCC2)c(Cl)c1` [Example 87, 5-(5-chloro-6-piperazin-1-yl-3-pyridyl)pent-4-yn-1-amine; 2,2,2-trifluoroacetic acid], less than 5 µM.

Take `CN1CCN(c2ncc(C(F)(F)F)cc2Cl)CC1` [Example 1, 1-[3-chloro-5-(trifluoromethyl)-2-pyridyl]-4-methyl-piperazine]: the EC50 lay within 100 to 500 µM.

For `Cc1cnc(N2CCN(C)CC2)c(Cl)c1` [Example 10, 1-(3-chloro-5-methyl-2-pyridyl)-4-methyl-piperazine], the EC50 was in the range of 5 to 100 µM. In the case of `NCc1nc(-c2cnc(N3CCNCC3)c(Cl)c2)no1` [Example 74, [3-(5-chloro-6-piperazin-1-yl-3-pyridyl)-1,2,4-oxadiazol-5-yl]methanamine;dihydrochloride] it was 5 to 100 µM. In the case of `NCc1cccc(OCc2cnc(N3CCNCC3)c(Cl)c2)c1` [Example 77, [3-[(5-chloro-6-piperazin-1-yl-3-pyridyl)methoxy]phenyl]methanamine;dihydrochloride] it was 5 to 100 µM; in that of `OCc1cccc(-c2ccc3nc(N4CCNCC4)c(Cl)cc3c2)c1` [Example 108, [3-(3-chloro-2-piperazin-1-yl-6-quinolyl)phenyl]methanol;hydrochloride], less than 5 µM. As for `COc1cnc(N2CCNCC2)c(Cl)c1` [Example 13, 1-(3-chloro-5-methoxy-2-pyridyl)piperazine;hydrochloride], the EC50 was in the range of 100 to 500 µM. In the case of `NCc1ccc(C(F)(F)F)c(-c2ccc3nc(N4CCNCC4)c(Cl)cc3c2)c1` [Example 122, [3-(3-chloro-2-piperazin-1-yl-6-quinolyl)-4-(trifluoromethyl)phenyl]methanamine;dihydrochloride] it was less than 5 µM; in that of `Cc1cnc(N2CCNCC2)c(Cl)c1` [Example 12, 1-(3-chloro-5-methyl-2-pyridyl)piperazine; hydrochloride], 5 to 100 µM.

As to `CC(C)(N)c1cccc(-c2ccc3nc(N4CCNCC4)c(Cl)cc3c2)c1` [Example 114, 2-[3-(3-chloro-2-piperazin-1-yl-6-quinolyl)phenyl]propan-2-amine;dihydrochloride], the EC50 was less than 5 µM. In the case of `O=C1CNCCN1c1ccc2nc(N3CCNCC3)c(Cl)cc2c1` [Example 64, 1-(3-chloro-2-piperazin-1-yl-6-quinolyl)piperazin-2-one;dihydrochloride] it was 5 to 100 µM; in that of `Cc1nnc(-c2cnc(N3CCNCC3)c(Cl)c2)o1` [Example 72, 2-(5-chloro-6-piperazin-1-yl-3-pyridyl)-5-methyl-1,3,4-oxadiazole], 5 to 100 µM. In the case of `COC(=O)c1cnc(N2CCN(C)CC2)c(Cl)c1` [Example 3, methyl 5-chloro-6-(4-methylpiperazin-1-yl)pyridine-3-carboxylate] it was 5 to 100 µM.

For the compound `O=C1NCCN1c1ccc2nc(N3CCNCC3)c(Cl)cc2c1` [Example 96, 1-(3-chloro-2-piperazin-1-yl-6-quinolyl)imidazolidin-2-one;hydrochloride], the EC50 is less than 5 µM. In the case of `COc1ccc2nc(Cl)c(N3CCNCC3)nc2c1` [Example 70, 2-chloro-6-methoxy-3-piperazin-1-yl-quinoxaline; hydrochloride] it was 5 to 100 µM; in that of `N[C@@H]1CCN(c2ccc3nc(N4CCNCC4)c(Cl)cc3c2)C1` [Example 101, (3R)-1-(3-chloro-2-piperazin-1-yl-6-quinolyl)pyrrolidin-3-amine;dihydrochloride], less than 5 µM; in that of `NCCc1ccc(C(=O)Nc2cnc(N3CCNCC3)c(Cl)c2)cc1` [Example 71, 4-(2-aminoethyl)-N-(5-chloro-6-piperazin-1-yl-3-pyridyl)benzamide;dihydrochloride], 5 to 100 µM.

On to `NC1CCN(c2ncc(C(F)(F)F)cc2Cl)CC1` [Example 7, 1-[3-chloro-5-(trifluoromethyl)-2-pyridyl]piperidin-4-amine], for which the EC50 lay in the range of 100 to 500 µM. In the case of `NCCn1cc(-c2ccc3nc(N4CCNCC4)c(Cl)cc3c2)nn1` [Example 94, 2-[4-(3-chloro-2-piperazin-1-yl-6-quinolyl)triazol-1-yl]ethanamine;dihydrochloride] it was less than 5 µM; in that of `C#Cc1cnc(N2CCNCC2)c(Cl)c1` [Example 88, 1-(3-chloro-5-ethynyl-2-pyridyl)piperazine], 5 to 100 µM. In the case of `NCc1cncc(-c2ccc3nc(N4CCNCC4)c(Cl)cc3c2)c1` [Example 132, [5-(3-chloro-2-piperazin-1-yl-6-quinolyl)-3-pyridyl]methanamine;dihydrochloride] it was less than 5 µM; in that of `CN(C)CCn1cc(-c2ccc3nc(N4CCNCC4)c(Cl)cc3c2)nn1` [Example 95, 2-[4-(3-chloro-2-piperazin-1-yl-6-quinolyl)triazol-1-yl]-N,N-dimethyl-ethanamine;dihydrochloride], less than 5 µM; in that of `NCCc1ccc(C#Cc2cnc(N3CCNCC3)c(Cl)c2)cc1` [Example 92, 2-[4-[2-(5-chloro-6-piperazin-1-yl-3-pyridyl)ethynyl]phenyl]ethanamine; 2,2,2-trifluoroacetic acid], less than 5 µM. For `CC(=O)Nc1cnc(N2CCN(C)CC2)c(Cl)c1` [Example 80, N-[5-chloro-6-(4-methylpiperazin-1-yl)-3-pyridyl]acetamide], the EC50 fell in the range of 5 to 100 µM. In the case of `NCc1cccc(OC(=O)c2cnc(N3CCNCC3)c(Cl)c2)c1` [Example 29, [3-(aminomethyl)phenyl] 5-chloro-6-piperazin-1-yl-pyridine-3-carboxylate;dihydrochloride] it was less than 5 µM; in that of `NCC(=O)Nc1ccc2nc(N3CCNCC3)c(Cl)cc2c1` [Example 65, 2-amino-N-(3-chloro-2-piperazin-1-yl-6-quinolyl)acetamide;dihydrochloride], less than 5 µM.

As for `NCCCc1nc(-c2cnc(N3CCNCC3)c(Cl)c2)no1` [Example 76, 3-[3-(5-chloro-6-piperazin-1-yl-3-pyridyl)-1,2,4-oxadiazol-5-yl]propan-1-amine; dihydrochloride], the EC50 was in the range of 5 to 100 µM. In the case of `Cc1cc2nc(Cl)c(N3CCNCC3)nc2cc1C` [Example 47, 2-chloro-6,7-dimethyl-3-piperazin-1-yl-quinoxaline;hydrochloride] it was less than 5 µM; in that of `CC(=O)Nc1cnc(N2CCNCC2)c(Cl)c1` [Example 35, N-(5-chloro-6-piperazin-1-yl-3-pyridyl)acetamide;hydrochloride], 100 to 500 µM. In the case of `O=C(Oc1ccccc1)c1cnc(N2CCNCC2)c(Cl)c1` [Example 84, Phenyl 5-chloro-6-piperazin-1-yl-pyridine-3-carboxylate; 2,2,2-trifluoroacetic acid] it was 5 to 100 µM; in that of `NCC1CCCN(c2ccc3nc(N4CCNCC4)c(Cl)cc3c2)C1` (centres unmarked) [Example 68, [1-(3-chloro-2-piperazin-1-yl-6-quinolyl)-3-piperidyl]methanamine;dihydrochloride], less than 5 µM.
